{
  "source": "paper PMC4569258",
  "key": {"[1]": {"assay": "MTT cytotoxicity test in AZ-AHR cells", "assay_type": "cell-based", "conditions": "human", "protocol": "(§1) Prior to gene reporter assays, we examined the cytotoxicity of tested compounds in AZ-AHR, AZ-GR and LS180 cell lines. For this purpose, the cells were incubated for 24 h with individual enantiomers of atorvastatin, fluvastatin and rosuvastatin at concentrations ranging from 100 pM to 100 μM. The vehicle was DMSO (0.1% v/v). After the treatment, a conventional MTT test was performed and the values of IC50 were calculated.\n(§2) Fig 2 Cytotoxicity of statin enantiomers in human cancer cell lines. […] After the treatment, a conventional MTT test was performed and absorbance was measured at 540 nm. Treatments were performed in triplicates."}, "[2]": {"assay": "MTT cytotoxicity test in AZ-GR cells", "assay_type": "cell-based", "conditions": "human, AZ-GR cells (HeLa-derived GR luciferase reporter cell line)", "protocol": "as §1, §2"}, "[3]": {"target": "T1, aryl hydrocarbon receptor (AhR) (Homo sapiens, UniProt P35869)", "T1 sequence (P35869 11-848)": "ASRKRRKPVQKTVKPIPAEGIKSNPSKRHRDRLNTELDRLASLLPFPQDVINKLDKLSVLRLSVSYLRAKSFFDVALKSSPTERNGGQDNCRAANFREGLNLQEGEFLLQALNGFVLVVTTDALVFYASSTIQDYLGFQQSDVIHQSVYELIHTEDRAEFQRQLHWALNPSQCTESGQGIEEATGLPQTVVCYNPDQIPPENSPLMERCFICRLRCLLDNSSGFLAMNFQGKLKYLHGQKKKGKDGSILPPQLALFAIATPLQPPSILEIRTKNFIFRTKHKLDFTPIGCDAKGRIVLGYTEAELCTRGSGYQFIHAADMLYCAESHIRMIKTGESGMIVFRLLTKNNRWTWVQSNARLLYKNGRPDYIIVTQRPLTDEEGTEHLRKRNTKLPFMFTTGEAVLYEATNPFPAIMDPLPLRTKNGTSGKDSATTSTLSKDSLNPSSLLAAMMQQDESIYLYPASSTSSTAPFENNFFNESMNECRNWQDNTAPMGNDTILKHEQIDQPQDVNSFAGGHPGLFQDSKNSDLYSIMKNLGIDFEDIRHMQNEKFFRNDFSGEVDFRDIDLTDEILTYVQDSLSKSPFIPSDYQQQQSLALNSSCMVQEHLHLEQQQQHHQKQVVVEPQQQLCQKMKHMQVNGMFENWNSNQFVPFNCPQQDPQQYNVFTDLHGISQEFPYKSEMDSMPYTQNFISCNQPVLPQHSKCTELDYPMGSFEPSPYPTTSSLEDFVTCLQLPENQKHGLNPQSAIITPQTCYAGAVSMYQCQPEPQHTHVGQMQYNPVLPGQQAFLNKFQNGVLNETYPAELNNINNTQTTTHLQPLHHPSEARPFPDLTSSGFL", "assay": "cell-based", "experimental": "(§3) A stably transfected gene reporter cell line AZ-AHR, derived from human hepatoma HepG2 cells transfected with a construct containing several AhR binding sites upstream of a luciferase reporter gene, was used for assessment of AhR transcriptional activity [20].\n(§4) Transcriptional activity of AhR was assessed in human gene reporter cell line AZ-AHR incubated for 24 h with tested compounds.\n(§5) AZ-AHR cells were seeded in 96-well plates and stabilized for 16 h and then incubated for 24 h with enantiopure forms of atorvastatin, rosuvastatin and fluvastatin in concentration ranging from 10^−10 M to 10^−4 M in the absence (agonist mode–upper panels) or presence (antagonist mode–lower panels) of dioxin (TCDD; 5 nM). The vehicle was DMSO (0.1% v/v). After the treatments, cells were lysed and luciferase activity was measured. Treatments were performed in triplicates. Data are expressed as a fold induction of luciferase activity over control cells (agonist mode) or as a percentage of maximal activation attained by TCDD (antagonist mode). The values of EC50 and IC50 from n independent cell passages were calculated where appropriate and the average values are indicated in plots. Representative gene reporter assays are shown."}, "[4]": {"target": "T2, pregnane X receptor (PXR) (Homo sapiens, UniProt O75469)", "T2 sequence (O75469 1-434)": "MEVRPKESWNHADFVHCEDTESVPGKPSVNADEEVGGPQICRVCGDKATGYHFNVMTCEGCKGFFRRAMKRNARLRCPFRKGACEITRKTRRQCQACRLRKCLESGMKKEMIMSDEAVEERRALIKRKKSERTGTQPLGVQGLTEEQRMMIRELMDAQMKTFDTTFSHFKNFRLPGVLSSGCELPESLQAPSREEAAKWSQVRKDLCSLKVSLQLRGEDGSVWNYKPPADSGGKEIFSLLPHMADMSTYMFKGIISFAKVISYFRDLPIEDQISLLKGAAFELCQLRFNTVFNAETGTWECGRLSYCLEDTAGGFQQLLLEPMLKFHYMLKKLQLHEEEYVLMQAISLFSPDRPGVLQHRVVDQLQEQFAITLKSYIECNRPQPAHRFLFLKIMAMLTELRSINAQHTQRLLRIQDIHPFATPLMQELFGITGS", "conditions": "100 μM concentration, agonist mode"}, "CYP2C9": {"system": "CYP2C9", "parameters": "method as in PMID 8737761", "conditions": "ratio to (+)3R,5S-fluvastatin; cited from earlier work"}, "[5]": {"parameters": "method as in PMID 19033449, PMID 16480934", "conditions": "humans, ratio to (+)3R,5S-fluvastatin; cited from earlier work"}, "[6]": {"assay": "MTT cytotoxicity test in LS180 cells", "assay_type": "cell-based", "conditions": "human, LS180 colon adenocarcinoma cells", "protocol": "as §1, §2"}, "[7]": {"target": "T1, aryl hydrocarbon receptor (AhR)", "assay": "AhR gene reporter assay in AZ-AHR cells", "conditions": "24 h", "experimental": "as §3, §4, §5"}},
  "data": [
    {"smiles": "CC(C)n1c(C=CC(O)CC(O)CC(=O)O)c(-c2ccc(F)cc2)c2ccccc21", "note": "(stereo not drawn) [3S5R-fluvastatin, 3S5R- fluvastatin]", "values": [
      {"measurement": "IC50 at 24 h", "setting": "[1]", "value": "> 100", "unit": "µM"},
      {"measurement": "IC50 at 24 h", "setting": "[2]", "value": "> 100", "unit": "µM"},
      {"measurement": "EC50", "setting": "[3]", "value": "14.4 ± 4.2", "unit": "µM"},
      {"measurement": "efficacy: average induction of PXR luciferase activity", "setting": "[4]", "value": "approx. 5 fold"},
      {"measurement": "Ki values of CYP2C9 inhibition compared to (+)3R,5S-fluvastatin", "setting": "CYP2C9", "value": "four to five times higher"},
      {"measurement": "AUC value compared to (+)3R,5S-fluvastatin", "setting": "[5]", "value": 1.8, "unit": "times"},
      {"measurement": "IC50 at 24 h", "setting": "[6]", "value": "> 100", "unit": "µM"},
      {"measurement": "IC50", "setting": "[7]; AhR antagonist IC50, antagonist mode, in presence of TCDD 5 nM", "value": "> 100", "unit": "µM"},
      {"measurement": "effect on AhR-dependent luciferase activity (agonist mode), in words", "setting": "[7]; agonist mode", "value": "slightly increased luciferase activity"}
    ]}
  ]
}
